For one test, the target named is T1, mouse SLC26A1 (Mus musculus, UniProt P58735, C691Y).
T1 construct: Full-length mouse SLC26A6b and SLC26A 1 cDNAs were cloned into the Xenopus expression vector pGEMHE; expressed in transfected cells; host or cells: Xenopus laevis oocytes injected with in vitro transcribed cRNA (pGEMHE)
T1 sequence (P58735 1-704 C691Y): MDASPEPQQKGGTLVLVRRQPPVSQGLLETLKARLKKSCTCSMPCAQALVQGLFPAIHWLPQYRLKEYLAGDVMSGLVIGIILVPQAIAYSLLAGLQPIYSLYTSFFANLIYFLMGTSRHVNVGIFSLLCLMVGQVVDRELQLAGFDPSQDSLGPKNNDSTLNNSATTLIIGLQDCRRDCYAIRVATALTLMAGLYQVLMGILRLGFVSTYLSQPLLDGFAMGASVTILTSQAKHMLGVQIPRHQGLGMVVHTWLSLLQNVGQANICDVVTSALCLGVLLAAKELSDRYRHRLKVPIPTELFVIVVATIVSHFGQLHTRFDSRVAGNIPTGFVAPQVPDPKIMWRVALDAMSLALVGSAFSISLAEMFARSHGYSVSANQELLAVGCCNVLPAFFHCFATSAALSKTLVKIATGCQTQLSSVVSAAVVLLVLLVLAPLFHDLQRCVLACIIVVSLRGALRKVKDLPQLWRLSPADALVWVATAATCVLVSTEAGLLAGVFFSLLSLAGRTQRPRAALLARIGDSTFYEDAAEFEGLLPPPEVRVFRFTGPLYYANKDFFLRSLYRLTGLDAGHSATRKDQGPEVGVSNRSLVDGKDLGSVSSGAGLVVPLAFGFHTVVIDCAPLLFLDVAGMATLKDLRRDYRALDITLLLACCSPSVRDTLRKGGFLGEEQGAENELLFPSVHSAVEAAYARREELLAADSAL
Briefly: Radiolabelled anion uptake in Xenopus oocytes expressing mouse SLC26A1. The test is classed as cell-based. The procedure: Full-length mouse SLC26A6b and SLC26A 1 cDNAs were cloned into the Xenopus expression vector pGEMHE (Liman et al., 1992). The SLC26A6 and SLC26A1 expression constructs were linearized, and cRNA was transcribed in vitro using T7 RNA polymerase and a […] MMACHINE® transcription kit (Ambion, Inc. of Austin, Tex., United States of America). Defolliculated oocytes were injected with 25 nl to 50 nl of water or with a solution containing cRNA at a concentration of 0.5 μg/μl (12.5 ng to 25 ng per oocyte) using a Nanoliter-2000 injector (WPI Instruments of Sarasota, Fla., United States of America). Oocytes were incubated at 17° C. in 50% Leibovitz's L-15 media supplemented with penicillin/streptomycin (1000 units/ml) and glutamine for 2-3 days for uptake assays.
For sulphate uptake assays, oocytes were pre-incubated for 20 minutes in chloride-free uptake medium (100 mM NMDG gluconate, 2 mM potassium gluconate, 1 mM calcium gluconate, 1 mM magnesium gluconate, 10 mM HEPES-Tris, pH 6.0 or pH 7.5 as indicated), followed by a 60-minute period for uptake in the same medium supplemented with 1 mM K2^35SO4 (40 μCi/ml). The cells were then washed three times in uptake buffer with 5 mM cold K2SO4 to remove tracer activity in the extracellular fluid. The oocytes were dissolved individually in 10% SDS, and tracer activity was determined by scintillation counting. Uptake of chloride, formate, and oxalate was assayed using the same chloride-free uptake solutions, substituting 8.3 mM ^36Cl, 500 μM [^14C]oxalate, or 50 μM [^14C]formate for labeled sulphate.
For sulphate exchange and cis-inhibition experiments, the concentration of NMDG-gluconate in the uptake solution was adjusted to maintain isotonic osmolality, which was confirmed experimentally using a FISKE® osmometer (Fiske Associates, Inc. of Bethel, Conn., United States of America).

The target in a further test is T2, rat DTDST (Rattus norvegicus, UniProt O70531).
T2 sequence (O70531 1-739): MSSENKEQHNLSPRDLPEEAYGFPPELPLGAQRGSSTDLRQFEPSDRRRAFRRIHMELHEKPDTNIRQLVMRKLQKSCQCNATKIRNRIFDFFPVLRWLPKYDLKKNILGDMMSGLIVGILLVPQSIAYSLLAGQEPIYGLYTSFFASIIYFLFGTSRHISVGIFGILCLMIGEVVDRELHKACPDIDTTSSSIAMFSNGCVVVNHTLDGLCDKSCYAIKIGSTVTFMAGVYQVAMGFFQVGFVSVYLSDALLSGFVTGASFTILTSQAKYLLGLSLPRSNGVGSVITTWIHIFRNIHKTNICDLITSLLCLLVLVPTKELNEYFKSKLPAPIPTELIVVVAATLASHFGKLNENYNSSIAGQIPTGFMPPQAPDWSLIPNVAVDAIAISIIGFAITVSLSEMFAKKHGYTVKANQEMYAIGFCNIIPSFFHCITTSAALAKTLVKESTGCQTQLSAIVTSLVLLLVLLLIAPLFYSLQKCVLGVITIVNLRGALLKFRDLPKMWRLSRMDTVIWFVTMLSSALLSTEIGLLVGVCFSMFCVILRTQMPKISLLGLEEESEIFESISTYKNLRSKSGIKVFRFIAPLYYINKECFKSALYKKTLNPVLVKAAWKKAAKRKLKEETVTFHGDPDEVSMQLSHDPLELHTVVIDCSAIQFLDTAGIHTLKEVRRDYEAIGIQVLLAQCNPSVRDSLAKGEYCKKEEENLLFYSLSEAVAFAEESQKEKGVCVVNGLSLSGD
The following applies: Satoh, 1998; cited from earlier work.

As to `O=C(O)C(=O)O` [oxalate], the “effect of extracellular anion on SO4 2− transport via SLC26A1” value at mouse SLC26A1 (25 mM of the anion (FIG. 9A, 6C)) is “strongly cis-inhibitory”. This compound came in with an oxalate uptake on mouse SLC26A1 (SLC26A1-injected oocytes (FIG. 8A)) of 72±2 pmol/oocyte/h. The “cis-inhibition of sulphate transport” value at rat DTDST is “cis-inhibited”.

The values are drawn from patent US20060014940A1, “Cloning and characterization of slc26a6, slc26a1, and slc26a2 anion exchangers” (priority 2002, published 2006).
